Measured values taken from patent US8178724B2, “Compounds for inhibition of 5-hydroxytryptamine and norepinephrine reuptake or for treatment of depression disorders, their preparation processes and uses thereof” (Shandong Luye Pharmaceutical Co., Ltd., priority 2005, dated 2012).

Columns and labels:
[1] = Beagle test of sustained release capsules (oral) versus intravenous administration; assay type: in vivo; settings: beagles, orally administrated sustained release capsule
Protocol: The blood samples were collected separately at 0.25, 0.5, 1, 2, 4, 6, 8, 12, 16 and 24 hours after drug administration.

human liver cells S9 = assay: Metabolism in human liver cells S9 to form the active component compound III; assay type: in vitro ADME; settings: conversion to compound III, human liver S9, 1 mM NADPH, 37° C.
Excerpt: Then the mixture was quenched with concentrated perchloric acid. After the precipitated proteins was removed by centrifuge, the supernatant was adjusted with concentrated potassium phosphate until pH was 3, and centrifuged again. The supernatant was directly injected into HPLC and analyzed.

Compound	conversion into compound III in vivo [1]	Metabolic rate (%) of compounds in liver cells within 2 hours (human liver cells S9) [%]
COc1ccc(C(=O)Oc2ccc(C(CN(C)C)C3(O)CCCCC3)cc2)cc1.O=C(O)CCC(=O)O (centres unmarked) [4-[2-dimethylamino-1-(1-hydroxycyclohexyl)-ethyl]phenyl 4-methoxybenzoate succinate]	quickly converted	
COc1ccc(C(=O)Oc2ccc(C(CN(C)C)C3(O)CCCCC3)cc2)cc1 (centres unmarked) [Compound 3 of Example 1, 4-[2-dimethylamino-1-(1-hydroxycyclohexyl)-ethyl]phenyl 4-methoxybenzoate]		92

More lines, now with the values ahead:

conversion into compound III in vivo [1]	Metabolic rate (%) of compounds in liver cells within 2 hours (human liver cells S9) [%]	Compound
quickly converted		CN(C)CC(c1ccc(OC(=O)c2ccccc2)cc1)C1(O)CCCCC1.Cl (centres unmarked) [4-[2-dimethylamino-1-(1-hydroxycyclohexyl)-ethyl]phenyl benzoate hydrochloride]
	96	CN(C)CC(c1ccc(OC(=O)c2ccccc2)cc1)C1(O)CCCCC1 (centres unmarked) [Compound 2 of Example 1, 4-[2-dimethylamino-1-(1-hydroxycyclohexyl)-ethyl]phenyl Benzoate]
	88	CN(C)CC(c1ccc(OC(=O)c2ccc(F)cc2)cc1)C1(O)CCCCC1 (centres unmarked) [Compound 4 of Example 1, 4-[2-dimethylamino-1-(1-hydroxycyclohexyl)-ethyl]phenyl 4-fluorobenzoate]
